For the first assay, the system named is LNCaP cell lines. Briefly: WST-1 Cell Proliferation and Viability Assay. Format: cell-based. As to conditions: Homo sapiens; LNCaP cells, compound incubation 18-72 hours. The method, then: WST-1 Cell Proliferation and Viability Assay
Cell proliferation and cell viability was assessed using the tetrazolium salt WST-1 (Roche Applied Science, Indianapolis Ind.). The assay is based on the cleavage of WST-1 (light red) by mitochondrial dehydrogenase causing the formation of formazan (dark red), which can be measured on an optical density (O.D.) reader. LNCaP cell lines were plated in 96 well tissue culture plates (Corning Costar, N.Y.) at a density of 5000 cells/well in 150 μl complete media phenol-red free (RPMI-1640 [Invitrogen, Carlsbad Calif.] and 10% fetal calf serum). This plate is termed the assay plate. After the cells are plated, they are then incubated overnight at 37 degrees Celsius in a humidified chamber containing 5% CO2 (incubator).
Compounds are added to the assay plate in 50 μl of complete media and 0.4% DMSO (v:v) making the final DMSO concentration 0.1%. The assay plate is then returned to the incubator for 18-72 hours. WST-1 reagent is then added (20 μl/well) and the plate is placed on an ELISA plate shaker for 30 minutes at room temperature. Plates are then transferred back to the incubator for an additional 3 hours. Plates are then read on a 96 well plate O.D. reader at A490-A650.
Consider `O=C(Nc1cc(C(F)(F)F)ccc1OCCc1ccc(C(F)(F)F)cc1)c1cc(Cl)ccc1O` [Compound 160], for which the midpoint of the response, the EC50, lay at 0.7 µM.
Same read-out and setting: the result for `O=C(Nc1cc(Cl)ccc1OCCc1ccc(OC(F)(F)F)cc1)c1cc(Cl)ccc1O` [Compound 161] reads 1 µM.
For the compound `O=C(Nc1cc(C(F)(F)F)ccc1OCCc1ccc(OC(F)(F)F)cc1)c1cc(Cl)ccc1O` [Compound 162], the response was half-maximal at 0.9 µM (EC50).
Still for that read-out and setting: the result for `O=C(Nc1cc(Cl)cc(Cl)c1OCCc1ccc(CC(F)(F)F)cc1)c1cc(Cl)ccc1O` [Compound 163] reads 2 µM.
The compound `Cc1cc(OCCc2ccc(CC(F)(F)F)cc2)c(NC(=O)c2cc(Cl)ccc2O)cc1Cl` [Compound 164] had an EC50 of 1 µM.
Compound `O=C(Nc1cc(Cl)ccc1OCCc1ccccc1)c1cnc2cc(C(F)(F)F)ccc2c1O` [Compound 166] gave an EC50 of 10 µM.
Still for that read-out and setting: the result for `O=C(Nc1cc(Cl)ccc1OCCc1ccccc1C(F)(F)F)c1cnc2cc(C(F)(F)F)ccc2c1O` [Compound 167] reads 6 µM; that for `O=C(Nc1ccccc1)c1cc(Cl)ccc1O` [Compound 168], 17 µM.
In turn, `O=C(Nc1cc(C(F)(F)F)cc(C(F)(F)F)c1)c1cc(Cl)ccc1O` [Compound 169] yielded an EC50 of 2 µM.
The same measure, in the same setting: the result for `COc1ccc(OCCc2ccccc2C(F)(F)F)c(NC(=O)c2cc(Cl)ccc2O)c1` [Compound 170] reads 4 µM; that for `Cc1ccc(NC(=O)c2cc(Cl)ccc2O)c(OCCc2ccccc2C(F)(F)F)c1` [Compound 171], 5 µM; that for `O=C(Nc1cc(Cl)cc(Cl)c1OCCc1ccccc1C(F)(F)F)c1cc(Cl)ccc1O` [Compound 172], 3 µM.
The compound `Cc1cccc(OCCc2ccccc2C(F)(F)F)c1NC(=O)c1cc(Cl)ccc1O` [Compound 173] registered an EC50 of 11 µM.
Same read-out and setting: the result for `CC(C)c1ccccc1-c1cccc(CNC(=O)c2cc(Cl)ccc2O)c1` [Compound 174] reads 11 µM; that for `CC(C)c1cccc(-c2cccc(CNC(=O)c3cc(Cl)ccc3O)c2)c1` [Compound 175], 14 µM.
Same read-out and setting: the result for `COc1ccccc1CCOc1cccc(NC(=O)c2ccc(F)cc2O)c1` [Compound 180] reads 12 µM.
Same read-out and setting: the result for `COc1ccc(C(=O)Nc2cccc(OCCc3ccccc3OC)c2)c(O)c1` [Compound 182] reads 23 µM; that for `COc1ccccc1CCOc1cccc(NC(=O)c2cc(F)ccc2O)c1` [Compound 183], 19 µM.
Take `O=C(Nc1cccc(OCCc2ccccc2)c1)c1cc(F)ccc1O` [Compound 184]: the EC50 came to 15 µM.
Still for that read-out and setting: the result for `COc1ccc(C(=O)Nc2cccc(OCCc3ccccc3)c2)c(O)c1` [Compound 185] reads 32 µM; that for `COc1ccc(O)c(C(=O)Nc2cccc(OCCc3ccccc3OC)c2)c1` [Compound 186], 22 µM; that for `COc1ccc(O)c(C(=O)Nc2cccc(OCCc3ccccc3)c2)c1` [Compound 187], 30 µM.
Same read-out and setting: the result for `O=C(NCc1cccc(-c2ccccc2)c1)c1ccc(F)cc1O` [Compound 189] reads 30 µM.
Same read-out and setting: the result for `O=C(NCc1cccc(-c2ccccc2)c1)c1cc(F)ccc1O` [Compound 190] reads 35 µM; that for `O=C(Nc1cccc(OCCc2ccccc2)c1)c1ccc(F)cc1O` [Compound 191], 15 µM; that for `O=C(NCc1cccc(-c2ccccc2)c1)c1cc(Br)ccc1O` [Compound 192], 30 µM.
In turn, `O=C(Nc1cccc(OCCc2ccccc2)c1)c1cc(Br)ccc1O` [Compound 193] registered an EC50 of 7 µM.
The same measure, in the same setting: the result for `COc1ccccc1CCOc1cccc(NC(=O)c2cc(Br)ccc2O)c1` [Compound 194] reads 9 µM.
Still for that read-out and setting: the result for `O=C(Nc1cccc(OCCc2ccccc2)c1)c1ccccc1O` [Compound 197] reads 26 µM; that for `COc1ccccc1CCOc1cccc(NC(=O)c2ccccc2O)c1` [Compound 198], 21 µM.
With `CC(C)c1cc(C(=O)Nc2cccc(OCCc3ccccc3)c2)c(O)c(C(C)C)c1` [Compound 200], the 50% effective concentration (EC50) was 37 µM.

The assay is the same for the next values; noted with them: Homo sapiens; LNCaP cells; flagged "Estimated": based on actual data at different concentrations.
On to `O=C(NCc1cccc(-c2ccccc2)c1)c1ccccc1O` [Compound 199], for which the EC50 is 47 µM.

Values taken from patent US7547804B2, “Compounds, compositions, and methods employing same” (Myriad Genetics, Inc., priority 2002, dated 2009).
